Experimental data published in PubChem BioAssay AID1918933 (Molecular Pharmacology Branch, DTP, NCI, 2023).

System: 186277-243-T-J2-PDC complex spheroid viability
Test: Anticancer human tumor 186277-243-T-J2-PDC patient-derived colon adenocarcinoma cell line growth inhibition
Conditions: for IC50: curve of first compound; for viability, T/C: stronger effect = lower value
Procedure, shortened: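 Drug combinations with the LSD1 inhibitor iadademstat tested on tumor cells co-cultured as spheroids with endothelial cells and mesenchymal stem cells. Concentrations descended in half-log increments from clinical Cmax or 10 microM.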

[1] = second compound 0.1 µM, first compound 0.00316 µM
[2] = second compound 0.1 µM, first compound 0.01 µM
[3] = second compound 0.1 µM, first compound 0.0316 µM
[4] = second compound 0.1 µM, first compound 0.1 µM
[5] = second compound 0.316 µM, first compound 0.00316 µM
[6] = second compound 0.316 µM, first compound 0.01 µM
[7] = second compound 0.316 µM, first compound 0.0316 µM
[8] = second compound 0.316 µM, first compound 0.1 µM
[9] = second compound 1 µM, first compound 0.00316 µM
[10] = second compound 1 µM, first compound 0.01 µM
[11] = second compound 1 µM, first compound 0.0316 µM
[12] = second compound 1 µM, first compound 0.1 µM
[13] = second compound 3.16 µM, first compound 0.00316 µM
[14] = second compound 3.16 µM, first compound 0.01 µM
[15] = second compound 3.16 µM, first compound 0.0316 µM
[16] = second compound 3.16 µM, first compound 0.1 µM
[17] = second compound 10 µM, first compound 0.00316 µM
[18] = second compound 10 µM, first compound 0.01 µM
[19] = second compound 10 µM, first compound 0.0316 µM
[20] = second compound 10 µM, first compound 0.1 µM
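Also: 7 day exposure to compounds.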
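For viability, T/C in this document: 100% = DMSO vehicle control viability.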

## CC(C)CC(NC(=O)CNC(=O)c1cc(Cl)ccc1Cl)B1OC(=O)CC(CC(=O)O)(C(=O)O)O1 (stereo not given) + NC1CCC(NC2CC2c2ccccc2)CC1
Second compound 0.1 µM
  IC50: 0.0205 µM
Second compound 0.316 µM
  IC50: 0.0203 µM
Second compound 1 µM
  IC50: 0.0186 µM
Second compound 3.16 µM
  IC50: 0.0196 µM
Second compound 10 µM
  IC50: 0.0195 µM
Second compound 0.1 µM, first compound 0.000316 µM
  viability, T/C: 102%
Second compound 0.1 µM, first compound 0.001 µM
  viability, T/C: 119%
[1]
  viability, T/C: 115%
[2]
  viability, T/C: 98.8%
[3]
  viability, T/C: 20.6%
[4]
  viability, T/C: 1.64%
Second compound 0.316 µM, first compound 0.000316 µM
  viability, T/C: 118%
Second compound 0.316 µM, first compound 0.001 µM
  viability, T/C: 114%
[5]
  viability, T/C: 117%
[6]
  viability, T/C: 96.6%
[7]
  viability, T/C: 20.7%
[8]
  viability, T/C: 1.44%
Second compound 1 µM, first compound 0.000316 µM
  viability, T/C: 113%
Second compound 1 µM, first compound 0.001 µM
  viability, T/C: 114%
[9]
  viability, T/C: 111%
[10]
  viability, T/C: 87.3%
[11]
  viability, T/C: 18.3%
[12]
  viability, T/C: 1.22%
Second compound 3.16 µM, first compound 0.000316 µM
  viability, T/C: 112%
Second compound 3.16 µM, first compound 0.001 µM
  viability, T/C: 107%
[13]
  viability, T/C: 110%
[14]
  viability, T/C: 96.5%
[15]
  viability, T/C: 17.1%
[16]
  viability, T/C: 1.04%
Second compound 10 µM, first compound 0.000316 µM
  viability, T/C: 105%
Second compound 10 µM, first compound 0.001 µM
  viability, T/C: 111%
[17]
  viability, T/C: 111%
[18]
  viability, T/C: 98.5%
[19]
  viability, T/C: 15.1%
[20]
  viability, T/C: 1.05%

## COc1cc(Nc2ncc3c(n2)-c2ccc(Cl)cc2C(c2c(F)cccc2OC)=NC3)ccc1C(=O)O + NC1CCC(NC2CC2c2ccccc2)CC1
Second compound 0.1 µM
  IC50: 0.013 µM
Second compound 0.316 µM
  IC50: 0.0112 µM
Second compound 1 µM
  IC50: 0.0104 µM
Second compound 3.16 µM
  IC50: 0.0106 µM
Second compound 10 µM
  IC50: 0.0137 µM
[1]
  viability, T/C: 131%
[2]
  viability, T/C: 59.2%
[3]
  viability, T/C: 19.2%
[4]
  viability, T/C: 0.36%
Second compound 0.1 µM, first compound 0.316 µM
  viability, T/C: 0.06%
Second compound 0.1 µM, first compound 1 µM
  viability, T/C: 0.02%
[5]
  viability, T/C: 119%
[6]
  viability, T/C: 54.1%
[7]
  viability, T/C: 11.7%
[8]
  viability, T/C: 0.19%
Second compound 0.316 µM, first compound 0.316 µM
  viability, T/C: 0.05%
Second compound 0.316 µM, first compound 1 µM
  viability, T/C: 0.01%
[9]
  viability, T/C: 109%
[10]
  viability, T/C: 51.1%
[11]
  viability, T/C: 11.3%
[12]
  viability, T/C: 0.14%
Second compound 1 µM, first compound 0.316 µM
  viability, T/C: 0.02%
Second compound 1 µM, first compound 1 µM
  viability, T/C: 0.01%
[13]
  viability, T/C: 120%
[14]
  viability, T/C: 51.8%
[15]
  viability, T/C: 13.2%
[16]
  viability, T/C: 0.12%
Second compound 3.16 µM, first compound 0.316 µM
  viability, T/C: 0.04%
Second compound 3.16 µM, first compound 1 µM
  viability, T/C: 0.01%
[17]
  viability, T/C: 128%
[18]
  viability, T/C: 58.6%
[19]
  viability, T/C: 27.7%
[20]
  viability, T/C: 0.81%
Second compound 10 µM, first compound 0.316 µM
  viability, T/C: 0.06%
Second compound 10 µM, first compound 1 µM
  viability, T/C: 0.02%

## O=C(C=Cc1cccc(S(=O)(=O)Nc2ccccc2)c1)NO + NC1CCC(NC2CC2c2ccccc2)CC1
Second compound 0.1 µM
  IC50: 0.289 µM
Second compound 0.316 µM
  IC50: 0.29 µM
Second compound 1 µM
  IC50: 0.294 µM
Second compound 3.16 µM
  IC50: 0.305 µM
Second compound 10 µM
  IC50: 0.285 µM
Second compound 0.1 µM, first compound 0.00949 µM
  viability, T/C: 109%
Second compound 0.1 µM, first compound 0.03 µM
  viability, T/C: 114%
Second compound 0.1 µM, first compound 0.0949 µM
  viability, T/C: 121%
Second compound 0.1 µM, first compound 0.3 µM
  viability, T/C: 47.7%
Second compound 0.1 µM, first compound 0.949 µM
  viability, T/C: 20.5%
Second compound 0.1 µM, first compound 3 µM
  viability, T/C: 5.16%
Second compound 0.316 µM, first compound 0.00949 µM
  viability, T/C: 116%
Second compound 0.316 µM, first compound 0.03 µM
  viability, T/C: 110%
Second compound 0.316 µM, first compound 0.0949 µM
  viability, T/C: 109%
Second compound 0.316 µM, first compound 0.3 µM
  viability, T/C: 47%
Second compound 0.316 µM, first compound 0.949 µM
  viability, T/C: 15.7%
Second compound 0.316 µM, first compound 3 µM
  viability, T/C: 2.43%
Second compound 1 µM, first compound 0.00949 µM
  viability, T/C: 113%
Second compound 1 µM, first compound 0.03 µM
  viability, T/C: 105%
Second compound 1 µM, first compound 0.0949 µM
  viability, T/C: 104%
Second compound 1 µM, first compound 0.3 µM
  viability, T/C: 47.1%
Second compound 1 µM, first compound 0.949 µM
  viability, T/C: 16.6%
Second compound 1 µM, first compound 3 µM
  viability, T/C: 2.3%
Second compound 3.16 µM, first compound 0.00949 µM
  viability, T/C: 99.7%
Second compound 3.16 µM, first compound 0.03 µM
  viability, T/C: 92%
Second compound 3.16 µM, first compound 0.0949 µM
  viability, T/C: 113%
Second compound 3.16 µM, first compound 0.3 µM
  viability, T/C: 50.6%
Second compound 3.16 µM, first compound 0.949 µM
  viability, T/C: 16%
Second compound 3.16 µM, first compound 3 µM
  viability, T/C: 1.48%
Second compound 10 µM, first compound 0.00949 µM
  viability, T/C: 104%
Second compound 10 µM, first compound 0.03 µM
  viability, T/C: 102%
Second compound 10 µM, first compound 0.0949 µM
  viability, T/C: 113%
Second compound 10 µM, first compound 0.3 µM
  viability, T/C: 47.3%
Second compound 10 µM, first compound 0.949 µM
  viability, T/C: 15%
Second compound 10 µM, first compound 3 µM
  viability, T/C: 1.31%
